# Results taken from patent publication US5798373A, “Tri-substituted phenyl derivatives useful as PDE IV inhibitors” (Celltech Therapeutics, Limited, priority 1995, dated 1998).
# Where a name gives a salt, the structure may show the parent alone.
# Columns and labels:
# [1] = Rat hepatocyte metabolism (metabolic stability); type: in vitro ADME; details: rat hepatocytes, after 3 h, mass spectroscopy; read-out: percentage of compound remaining
# Procedure: (§1) 2. Rat Hepatocyte Metabolism
# (§2) The quantity of compound remaining after a fixed period of time was then determined using mass spectroscopy.
# (§3) Thus in one such test the compound of Example 1 was compared with a related compound particularly described in International Patent Specification No. WO94/14742 in which the 4-fluorobenzylurea group is replaced by a hydrogen atom (i.e. (L^1)n Ar' above is a hydrogen atom). After 3 h the percentage of each compound remaining was: […]
# rat hepatocytes = test: Rat hepatocyte metabolism (metabolic stability); type: in vitro ADME; details: after 3 h
# Procedure: as §1, §2, §3
# [2] = biological target: T1, Recombinant Human PDE IVA (Homo sapiens, UniProt P27815); test: Isolated recombinant human PDE IVA enzyme inhibition; type: biochemical; details: 0.1 μM [^3 H]-cAMP, pH 7.5, 30° C.
# T1 construct: made in house; host or cells: yeast (inducible vector)
# T1 sequence (P27815 whole entry): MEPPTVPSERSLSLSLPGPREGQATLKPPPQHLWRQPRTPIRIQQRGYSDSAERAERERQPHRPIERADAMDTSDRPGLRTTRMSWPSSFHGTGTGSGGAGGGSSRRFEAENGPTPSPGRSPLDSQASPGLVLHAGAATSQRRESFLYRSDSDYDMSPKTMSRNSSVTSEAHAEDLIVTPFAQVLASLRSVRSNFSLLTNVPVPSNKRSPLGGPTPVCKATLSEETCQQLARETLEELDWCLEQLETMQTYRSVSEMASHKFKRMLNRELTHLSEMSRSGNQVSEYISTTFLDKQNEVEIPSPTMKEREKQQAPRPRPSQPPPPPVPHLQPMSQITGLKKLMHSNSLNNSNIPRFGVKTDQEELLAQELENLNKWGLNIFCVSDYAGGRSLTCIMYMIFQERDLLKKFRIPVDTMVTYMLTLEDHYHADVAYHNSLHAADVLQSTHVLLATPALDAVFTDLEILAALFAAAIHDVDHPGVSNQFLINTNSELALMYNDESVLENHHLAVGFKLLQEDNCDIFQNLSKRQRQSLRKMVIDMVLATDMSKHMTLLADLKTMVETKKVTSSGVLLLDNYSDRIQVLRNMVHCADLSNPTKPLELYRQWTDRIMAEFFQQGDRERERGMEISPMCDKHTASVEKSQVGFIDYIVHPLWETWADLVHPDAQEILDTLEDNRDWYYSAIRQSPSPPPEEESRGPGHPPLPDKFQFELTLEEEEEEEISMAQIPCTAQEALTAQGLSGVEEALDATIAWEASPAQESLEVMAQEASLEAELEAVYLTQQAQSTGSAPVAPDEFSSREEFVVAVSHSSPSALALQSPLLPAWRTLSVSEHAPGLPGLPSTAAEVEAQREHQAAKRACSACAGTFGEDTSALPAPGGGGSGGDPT
# Procedure: Isolated Recombinant Human PDE IVA Enzyme
# The enzymes were purified to isoenzyme homogeneity using standard chromatographic techniques.
# Phosphodiesterase activity was assayed as follows. The reaction was conducted in 150 μl of standard mixture containing (final concentrations): 50 mM 2-[[tris(hydroxymethyl)methyl]amino]-1-ethanesulphonic acid (TES) --NaOH buffer (pH 7.5), 10 mM MgCl2, 0.1 μM [^3 H]-cAMP and vehicle or various concentrations of the test compounds. The reaction was initiated by addition of enzyme and conducted at 30° C. for between 5 to 30 min. The reaction was terminated by addition of 50 μl 2% trifluoroacetic acid containing [^14 C]-5'AMP for determining recovery of the product. An aliquot of the sample was then applied to a column of neutral alumina and the [^3 H]-cAMP eluted with 10 ml 0.1 TES-NaOH buffer (pH8). The [^3 H]-5'-AMP product was eluted with 2 ml 2M NaOH into a scintillation vial containing 10 ml of scintillation cocktail. Recovery of [^3 H]-5'AMP was determined using the [^14 C]-5'AMP and all assays were conducted in the linear range of the reaction. Results were expressed as IC50 values.
smiles,measurement,setting,value
"COc1ccc([C@H](Cc2ccncc2)c2ccc(NC(=O)NCc3ccc(F)cc3)cc2)cc1OC1CCCC1 [Example 1, (R)-N-[4-{1-(3-cyclopentyloxy-4-methoxyphenyl)-2-(4-pyridyl)ethyl}-phenyl]-N'-(4-fluorobenzyl) urea]",remaining at 3 h,[1],> 80%
same,percentage of compound remaining,"rat hepatocytes; mass spectroscopy, listed as compound of the invention, 180 min",over 80%
same,IC50,[2],23 nM
"COc1ccc([C@H](Cc2ccncc2)c2ccc(NS(=O)(=O)Cc3ccccc3)cc2)cc1OC1CCCC1 [Example 2, (R)-4-{2-(3-cyclopentyloxy-4-methoxyphenyl)-2-[4-(benzylsulphonylamino)phenyl]ethyl}pyridine hydrochloride]",IC50,[2],7.5 nM
"COc1ccc([C@H](Cc2ccncc2)c2ccccc2)cc1OC1CCCC1 [WO94/14732 comparison compound, reference compound]",remaining at 3 h,[1],6%
same,extent of metabolism (in words),rat hepatocytes,extensively metabolised
